Source: US7741281B2, “Hepatitis C virus inhibitors” (Bristol-Myers Squibb Company, priority 2005, dated 2010)

Assays:
[1] = system: human pancreatic chymotrypsin; assay: Specificity assay, chymotrypsin (pNA substrate); assay type: biochemical; settings: read-out: Chymotrypsin activity in the specificity assays (IC50)
Experimental: (§1) The specificities of compounds of the present disclosure were determined against a variety of serine proteases: human neutrophil elastase (HNE), porcine pancreatic elastase (PPE) and human pancreatic chymotrypsin and one cysteine protease: human liver cathepsin B. In all cases, a 96-well plate format protocol using colorimetric p-nitroaniline (pNA) substrate or fluorometric Amino-Methyl-Coumarin (AMC) substrate, specific for each enzyme was used as described previously (PCT Patent Application No. WO 00/09543) with some modifications. All enzymes were purchased from Sigma or EMDbiosciences while the substrates were from Bachem.
(§2) Each pNA assay included a 2 h enzyme-inhibitor pre-incubation at room temperature followed by addition of substrate and hydrolysis to ˜15% conversion as measured on a Spectramax Pro microplate reader. The cathepsin B assay was initiated by adding substrate to a 10 min enzyme-inhibitor pre-incubation at room temperature, and the assay plate measured immediately using the Cytofluor Series 4000. Compound concentrations varied from 100 to 0.4 μM depending on their potency.
(§3) The final conditions for each assay were as follows: […]
(§4) The percentage of inhibition was calculated using the formula: [1−((UVinh−UVblank)/(UVctl−UVblank))]×100 […]

[2] = biological target: T1, HCV NS3/4A protease complex, H77 strain (Hepatitis C virus genotype 1a, UniProt P27958, C1454S/C1711G); assay: FRET peptide assay to monitor HCV NS3/4A proteolytic activity (H77 strain); assay type: biochemical, HCV genotype 1a
T1 construct: recombinant HCV NS3/4A protease complex (amino acids 1027 to 1711) for these strains; His tag (inferred from pET21b vector and Ni-NTA purification); made in house; host or cells: Escherichia coli BL21 (DE3), pET21b
T1 sequence (P27958 1027-1711 C1454S/C1711G, one chain of several): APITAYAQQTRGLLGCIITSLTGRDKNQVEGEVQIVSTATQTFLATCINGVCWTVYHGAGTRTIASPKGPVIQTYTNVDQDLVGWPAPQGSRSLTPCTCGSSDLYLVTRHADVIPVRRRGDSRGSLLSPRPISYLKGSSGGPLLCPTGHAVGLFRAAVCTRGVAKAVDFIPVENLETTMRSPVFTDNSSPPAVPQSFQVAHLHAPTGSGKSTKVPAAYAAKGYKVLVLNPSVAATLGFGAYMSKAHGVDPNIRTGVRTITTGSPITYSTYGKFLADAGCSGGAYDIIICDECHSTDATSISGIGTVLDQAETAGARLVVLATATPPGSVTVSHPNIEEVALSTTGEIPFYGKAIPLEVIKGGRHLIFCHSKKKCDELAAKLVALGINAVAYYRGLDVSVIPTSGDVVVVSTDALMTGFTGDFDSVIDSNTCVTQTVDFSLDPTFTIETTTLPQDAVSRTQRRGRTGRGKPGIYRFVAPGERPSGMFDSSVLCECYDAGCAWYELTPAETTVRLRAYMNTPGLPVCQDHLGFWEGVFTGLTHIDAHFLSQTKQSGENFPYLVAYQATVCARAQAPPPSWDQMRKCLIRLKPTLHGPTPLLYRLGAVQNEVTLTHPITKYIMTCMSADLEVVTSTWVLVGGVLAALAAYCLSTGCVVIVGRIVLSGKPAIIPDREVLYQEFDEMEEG
Text: HCV NS3 protease complexes, derived from the BMS strain, H77 strain or J4L6S strain, were generated, as described below. These purified recombinant proteins were generated for use in a homogeneous assay (see below) to provide an indication of how effective compounds of the present disclosure would be in inhibiting HCV NS3 proteolytic activity.
Serum from an HCV-infected patient was obtained from Dr. T. Wright, San Francisco Hospital. An engineered full-length cDNA (compliment deoxyribonucleic acid) template of the HCV genome (BMS strain) was constructed from DNA fragments obtained by reverse transcription-PCR (RT-PCR) of serum RNA (ribonucleic acid) and using primers selected on the basis of homology between other genotype 1a strains. From the determination of the entire genome sequence, a genotype 1a was assigned to the HCV isolate according to the classification of Simmonds et al. (See P Simmonds, K A Rose, S Graham, S W Chan, F McOmish, B C Dow, E A Follett, P L Yap and H Marsden, J. Clin. Microbiol., 31(6), 1493-1503 (1993)). […]

human liver cathepsin B = biological target: T2, human liver cathepsin B (Homo sapiens, UniProt P07858); assay: Specificity assay, cathepsin B (AMC substrate); assay type: biochemical; settings: read-out: Cathepsin B activity in the specificity assays (IC50)
T2 construct: purchased Sigma or EMDbiosciences; host or cells: human liver (as named)
Experimental: as §1, §2, §3, §4

COc1c(O[C@@H]2C[C@H]3C(=O)N[C@]4(C(=O)NS(=O)(=O)C5CC5)C[C@H]4/C=C\CCCCC[C@H](NC(=O)OC(C)(C)C)C(=O)N3C2)ccc2c(Cl)nccc12 [Compound 3]
IC50 [1]: > 100 µM
IC50 [2]: 0.0006 µM
IC50 (human liver cathepsin B): 100 µM
